In patent US7915293B2, “Ubiquitin ligase inhibitors” (Rigel Pharmaceuticals, Inc., priority 2003, dated 2011):

How the values were obtained:
Design in all cases: key: “+” indicates that the compound exibits inhibitory activity; “−” indicates that low or no inhibitory activity was observed
[1] = target: E3 (His-APC11/APC2-"APC") (Homo sapiens, UniProt Q9NYG5+Q9UJX6); assay: Plate-based E3 ligase assay (APC FLAG), auto-ubiquitination; format: biochemical; details: for APC Flag 8 pt: 8 concentrations tested; for APC Flag (2 pt): 2 concentrations tested
Procedure, shortened: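 His-APC11/APC2 auto-ubiquitination was run in casein-blocked nickel plates for 1 h at room temperature, with E1 at 5 ng/well, UbcH5c at 20 ng/well and APC at 100 ng/well. Buffer was 62.5 mM Tris pH 7.6, 3 mM MgCl2, 1 mM DTT, 2.5 mM ATP and Flag-ubiquitin at 100 ng/well. Detection used anti-Flag/HRP chemiluminescence, and IC50 was typically from 6 or 8 concentrations versus a DMSO control.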

A549 cells [2] = assay: Cell proliferation assay, photographic image analysis of proliferation, apoptosis and death (PAD assay), A549; format: cell-based; details: 6 concentrations tested
Procedure, shortened: (§1)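 Cells grown in RPMI with 5% FBS (2,000/well) and dosed 24 h after plating with 6.3-fold dilutions in duplicate (master plate 500× final, top 10 mM stock). After 48 h at 37 °C, cells formamide-fixed and DAPI-stained. Image analysis counted live, apoptotic and dead cells.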

HeLa cells [3] = assay: Cell proliferation assay, photographic image analysis of proliferation, apoptosis and death (PAD assay), HeLa; format: cell-based; details: 6 concentrations tested
Procedure, shortened: as §1

A549 cells [4] = assay: Non-photographic proliferation analysis (Promega Cell titer Aqueous), A549; format: cell-based; details: 6 concentrations tested
Method: (§2) A549 (ATCC# CCL-185), HeLa (ATCC# CCL-2), HCT116 (ATCC# CCL-247), and H1299 (ATCC# CRL-5803) cells were maintained in T175 flasks following the ATCC recommended media and handling procedures. Flasks reaching approximately 70% confluency were trypsinized and resuspended in RPMI media (Cell-Gro catalog number 10-040-CM) modified to contain 5% FBS, 100 ug/mlPen/Strep (Cell-Gro catalog number 30-002-CL), and 0.3 mg/ml L-Glutamine (Cell-Gro catalog number 25-003-CL). A 20,000 cells/ml solution was made for plating. Cells were plated in black Packard 96 well plates by placing 100 μl per well (2,000 cells per well).
(§3) Compounds and additional media were added 24 hours after cell plating. A compound master plate was created with concentrations 500 times greater than the final concentration added to the cells. All compound testing was done in duplicate using 6.3 fold dilutions starting with 10 mM. All outside wells (and 4 internal wells) were DMSO controls. Taxol and at least one additional control were run on all plates. Three microliters of the compound master plate were added to deep well blocks containing 750 μl of RPMI media. One hundred microliters were transferred from the compound/media deep well blocks to the plated cells resulting in a 500 fold dilution of the compounds. Cells were grown at 37° C., 5% CO2 for 48 hours.
(§4) Some cell plates were treated with Promega Cell titer Aqueous 1 kit (promega—VWR catalog number G3580). In this case, 48 hours after the test compound were added, 100 μl of media were removed and 20 μl of cell titer reagent were added to all wells. Plates were incubated at 37° C. for 45 minutes prior to absorbance reads on the Wallac plate reader at 490 nm for 0.1 sec/well.

HeLa cells [5] = assay: Non-photographic proliferation analysis (Promega Cell titer Aqueous), HeLa; format: cell-based; details: 6 concentrations tested
Method: as §2, §3, §4

Chain of E3 (His-APC11/APC2-"APC") (Q9NYG5 whole entry): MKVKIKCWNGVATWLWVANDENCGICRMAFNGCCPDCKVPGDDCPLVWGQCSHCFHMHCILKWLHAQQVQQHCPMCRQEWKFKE
Chain of E3 (His-APC11/APC2-"APC") (Q9UJX6 whole entry): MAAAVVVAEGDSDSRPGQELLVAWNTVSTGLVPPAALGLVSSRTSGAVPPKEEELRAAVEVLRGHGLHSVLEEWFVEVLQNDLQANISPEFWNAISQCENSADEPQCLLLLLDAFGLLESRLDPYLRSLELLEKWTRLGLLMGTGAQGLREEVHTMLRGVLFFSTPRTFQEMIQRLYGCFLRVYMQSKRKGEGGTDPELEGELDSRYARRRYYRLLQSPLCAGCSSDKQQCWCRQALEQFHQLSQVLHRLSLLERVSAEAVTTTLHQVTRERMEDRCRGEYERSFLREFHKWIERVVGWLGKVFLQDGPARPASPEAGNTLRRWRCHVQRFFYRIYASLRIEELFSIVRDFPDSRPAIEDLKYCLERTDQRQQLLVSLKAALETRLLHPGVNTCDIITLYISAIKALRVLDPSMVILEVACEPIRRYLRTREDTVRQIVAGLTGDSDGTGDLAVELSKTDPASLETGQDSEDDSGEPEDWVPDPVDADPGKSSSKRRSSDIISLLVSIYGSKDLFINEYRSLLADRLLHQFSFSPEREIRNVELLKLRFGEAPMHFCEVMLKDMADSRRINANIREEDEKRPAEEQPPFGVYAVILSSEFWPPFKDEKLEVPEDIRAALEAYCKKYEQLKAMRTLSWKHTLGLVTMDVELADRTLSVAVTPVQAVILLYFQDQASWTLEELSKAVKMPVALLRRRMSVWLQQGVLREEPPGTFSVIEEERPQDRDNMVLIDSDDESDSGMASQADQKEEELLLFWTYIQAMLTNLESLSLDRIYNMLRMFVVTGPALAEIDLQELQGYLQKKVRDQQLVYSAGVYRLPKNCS

| Compound | APC Flag 8 pt [1] | PAD Assay, A549 6 pt (A549 cells [2]) | PAD Assay, HELA 6 pt (HeLa cells [3]) | Cell Titer-Aqueous, A549 6 pt (A549 cells [4]) | Cell Titer-Aqueous, HELA 6 pt (HeLa cells [5]) | APC Flag (2 pt) [1] |
| --- | --- | --- | --- | --- | --- | --- |
| O=[N+]([O-])c1ccc(Oc2c(Cl)cc(S(=O)(=O)Nc3ccsc3)cc2Cl)c(Cl)c1 [Example 165, 3,5-dichloro-4-(2-chloro-4-nitrophenoxy)-N-3-thienylbenzenesulfonamide] | + | + | + | + | + |  |
| COc1cc(NS(=O)(=O)c2cc(Cl)c(Oc3ccc([N+](=O)[O-])cc3Cl)c(Cl)c2)c(OC)cc1Cl [Example 202, 3,5-dichloro-N-(4-chloro-2,5-dimethoxy-phenyl)-4-(2-chloro-4-nitrophenoxy)benzene-sulfonamide] | − | + | + | + | + |  |
| O=[N+]([O-])c1ccc(Oc2c(Cl)cc(S(=O)(=O)Nc3cccc(Br)c3)cc2Cl)c(Cl)c1 [Example 159, N-(3-bromophenyl)-3,5-dichloro-4-(2-chloro-4-nitrophenoxy)benzenesulfonamide] | + | + | + | + | + |  |
| O=[N+]([O-])c1ccc(Oc2c(Cl)cc(S(=O)(=O)Nc3ccccc3I)cc2Cl)c(Cl)c1 [Compound 209] | + | + | + | + | + |  |
| O=[N+]([O-])c1ccc(Oc2c(Cl)cc(S(=O)(=O)Nc3ccccc3Cl)cc2Cl)c(Cl)c1 [Example 156, 3,5-dichloro-4-(2-chloro-4-nitrophenoxy)-N-(2-chlorophenyl)benzenesulfonamide] | + |  | + | + | + |  |
| O=C1Nc2cc(NS(=O)(=O)c3cc(Cl)c(Oc4ccc([N+](=O)[O-])cc4Cl)c(Cl)c3)ccc2OC1(F)F [Example 214, 3,5-dichloro-4-(2-chloro-4-nitrophenoxy)-N-(2,2-difluoro-3-oxo-3,4-dihydro-2H-1,4-benzoxazin-6-yl)benzenesulfonamide] | + | + | + | − | + |  |
| O=[N+]([O-])c1ccc(Oc2c(Cl)cc(S(=O)(=O)NC(=S)Nc3ccc(Cl)c(Cl)c3)cc2Cl)c(Cl)c1 [Compound 148, 3,5-dichloro-4-(2-chloro-4-nitrophenoxy)-N-{[(3,4-dichlorophenyl)amino]carbothioyl}benzenesulfonamide] | + |  |  | − | − |  |
| O=[N+]([O-])c1ccc(Oc2c(Cl)cc(S(=O)(=O)Nc3ncccn3)cc2Cl)c(Cl)c1 [Example 222, 3,5-dichloro-4-(2-chloro-4-nitrophenoxy)-N-pyrimidin-2-ylbenzenesulfonamide] | + |  |  | − | − |  |
| O=[N+]([O-])c1ccc(Oc2c(Cl)cc(S(=O)(=O)NC3Cc4ccccc4C3)cc2Cl)c(Cl)c1 [Example 224, 3,5-dichloro-4-(2-chloro-4-nitrophenoxy)-N-(2,3-dihydro-1H-inden-2-yl)benzene-sulfonamide] |  |  |  | + | + | − (2 pt) |
| COc1ccc(NS(=O)(=O)c2cc(Cl)c(Oc3ccc([N+](=O)[O-])cc3Cl)c(Cl)c2)cc1OC [Example 170, 3,5-dichloro-4-(2-chloro-4-nitrophenoxy)-N-(3,4-dimethoxyphenyl)benzenesulfonamide] | + |  |  | + | + |  |
| COc1ccc(NS(=O)(=O)c2cc(Cl)c(Oc3ccc([N+](=O)[O-])cc3Cl)c(Cl)c2)cc1 [Compound 208] | − | + | + | + | + |  |
| O=[N+]([O-])c1ccc(Oc2c(Cl)cc(S(=O)(=O)Nc3cccnc3)cc2Cl)c(Cl)c1 [Example 205, 3,5-dichloro-4-(2-chloro-4-nitrophenoxy)-N-pyridin-3-ylbenzenesulfonamide] | − |  |  | − | − |  |
| N=C(NS(=O)(=O)c1cc(Cl)c(Oc2ccc([N+](=O)[O-])cc2Cl)c(Cl)c1)c1cccc([N+](=O)[O-])c1 [Example 210, N-{[3,5-dichloro-4-(2-chloro-4-nitro-phenoxy)phenyl]sulfonyl}-3-nitrobenzene-carboximidamide] | + | + | + | + | + |  |
| COc1ccc(N(S(=O)(=O)c2cc(Cl)c(Oc3ccc([N+](=O)[O-])cc3Cl)c(Cl)c2)S(=O)(=O)c2cc(Cl)c(Oc3ccc([N+](=O)[O-])cc3Cl)c(Cl)c2)cc1Cl [Example 155, 3,5-dichloro-N-(3-chloro-4-methoxyphenyl)-4-(2-chloro-4-nitrophenoxy)-N-(1,3-dichloro-2-(2-chloro-4-nitrophenoxy)-5-sulfonylbenzene)benzenesulfonamide] | + | + |  | − | − |  |
| N#Cc1ccc(NS(=O)(=O)c2cc(Cl)c(Oc3ccc([N+](=O)[O-])cc3Cl)c(Cl)c2)cc1 [Example 200, 3,5-dichloro-4-(2-chloro-4-nitrophenoxy)-N-(4-cyanophenyl)benzenesulfonamide] | + | + | + | + | + |  |
| CS(=O)(=O)c1cccc(NS(=O)(=O)c2cc(Cl)c(Oc3ccc([N+](=O)[O-])cc3Cl)c(Cl)c2)c1 [Compound 173, 3,5-dichloro-4-(2-chloro-4-nitrophenoxy)-N-[3-(methylsulfonyl)phenyl]benzenesulfonamide] |  | − | − | − | − | − (2 pt) |
| O=[N+]([O-])c1ccc(Oc2c(Cl)cc(S(=O)(=O)Nc3cccnc3Cl)cc2Cl)c(Cl)c1 [Example 207, 3,5-dichloro-4-(2-chloro-4-nitrophenoxy)-N-(2-chloropyridin-3-yl)benzenesulfonamide] | + |  |  | + | + |  |
| COc1cccc(NS(=O)(=O)c2cc(Cl)c(Oc3ccc([N+](=O)[O-])cc3Cl)c(Cl)c2)c1F [Example 166, 3,5-dichloro-4-(2-chloro-4-nitrophenoxy)-N-(2-fluoro-3-methoxyphenyl)benzene-sulfonamide] | + |  |  | + | + |  |
| COc1ccc(NS(=O)(=O)c2cc(Cl)c(Oc3ccc([N+](=O)[O-])cc3Cl)c(Cl)c2)c(OC)n1 [Example 206, 3,5-dichloro-4-(2-chloro-4-nitrophenoxy)-N-(2,6-dimethoxypyridin-3-yl)benzene-sulfonamide] | − |  |  | + | + |  |
| O=[N+]([O-])c1ccc(Oc2c(Cl)cc(S(=O)(=O)Nc3cccc4c3oc3ccccc34)cc2Cl)c(Cl)c1 [Example 175, 3,5-dichloro-4-(2-chloro-4-nitrophenoxy)-N-dibenzo[b,d]furan-4-ylbenzenesulfonamide] | + |  |  | − | − |  |
